{"source": "patent US20200038415A1", "about": "“AMINOSTEROL COMPOSITIONS AND METHODS OF USING THE SAME FOR TREATING ERECTILE DYSFUNCTION” (Enterin, Inc., priority 2018, published 2020)", "format_in_all_cases": "in vivo, human", "key": {"[1]": {"tested_on": "PD patients with constipation", "experiment": "Phase 2 trial Stage 2: bowel function under daily oral dosing (fixed dose, randomized period, wash-out)", "settings": "Stage 2 fixed dose", "method": "Following successful screening, all subjects underwent a 14-day run-in period where the degree of constipation was assessed through a validated daily log (Zinsmeister et al. 2013) establishing baseline CSBMs/week. Subjects with an average of <3 CSBMs/week proceeded to dosing.\n(§1) In Stage 2, 34 patients were evaluated.\nThe primary efficacy outcome variable was whether or not a subject was a “success” or “failure”. This is an endpoint based on subject diary entries for the “fixed dose” period prior to the endpoint assessment defined as average complete stool frequency increase by 1 or more over baseline, or 3 or more complete spontaneous stools/week. The subject was deemed a “success” if s/he met one or more of the criteria listed above, otherwise the subject was deemed a “failure”. The primary analysis was based on all subjects with a baseline assessment and an assessment at the end of the “fixed-dose” period and was a comparison of the proportion of successes with 0.10 (the null hypothesis corresponding to no treatment effect).\nThe proportion of subjects for whom the drug was a success was estimated with a binomial point estimate and corresponding 95% confidence interval. A secondary analysis compared the proportions of subjects who are deemed a success at the end of the randomized fixed-dose period between those randomized to the squalamine (ENT-01) arm and those randomized to the placebo arm. A Fisher's exact test was used to compare the proportions of subjects who were deemed a success at the end of randomization period between the two randomized arms"}, "[2]": {"tested_on": "PD patients with constipation", "experiment": "Safety and adverse event profile, Stage 1", "description": "Tolerability limits included diarrhea or vomiting."}, "[3]": {"tested_on": "PD patients with constipation", "experiment": "Safety and adverse event profile, Stage 2", "method": "as §1"}, "[4]": {"tested_on": "PD patients with constipation", "experiment": "Safety and adverse event profile, Stage 1 and 2 combined (44 dosed)", "method": "Fifty patients were enrolled and 44 were dosed. In Stage 1, 10 patients were dosed, 1 (10%) withdrew prior to completion and 9 (90%) completed dosing. In stage 2, 6 (15%) patients had ≥3 CSBM/week at the end of the run-in period and were excluded, 34 patients were dosed and bowel response was assessable in 31 (91%). Two patients (5.8%) were terminated prior to completion because of recurrent dizziness, and 3 others withdrew during dosing (8.8%): 2 because of diarrhea and 1 because of holiday. Fifteen patients were randomized."}, "[5]": {"tested_on": "PD patients with constipation", "experiment": "Circadian rhythm of wrist skin temperature", "settings": "for circadian rhythm of skin temperature: markers of healthy circadian function (IS, RA, CFI, IV): fixed dose vs baseline, 12 evaluable patients", "method": "(6) I-Button Temperature Assessment. The I-Button is a small, rugged self-sufficient system that measures temperature and records the results in a protected memory section. The Thermochron I-Button DS1921H (Maxim Integrated, Dallas, Tex.) was used for skin temperature measurement. I-Buttons were programmed to sample every 10 mins., and attached to a double-sided cotton sport wrist band using Velcro, with the sensor face of the I-Button placed over the inside of the wrist, on the radial artery of the dominant hand. Subjects removed and replaced the data logger when necessary (i.e., to have a bath or shower). The value of skin temperature assessment in sleep research is that the endogenous skin warming resulting from increased skin blood flow is functionally linked to sleep propensity. From the collected data, the mesor, amplitude, acrophase (time of peak temperature), Rayleight test (an index of interdaily stability), mean waveforms are calculated.);\nAssessments were made at baseline and at the end of the fixed dose and washout periods. Circadian system status was evaluated by continuously monitoring wrist skin temperature (Thermochron iButton DS1921H; Maxim, Dallas) following published procedures (Sarabia et al. 2008).\nCircadian rhythm of skin temperature was evaluable in 12 patients (i.e., those who had recordings that extended from baseline through washout). Circadian system functionality was evaluated by continuously monitoring wrist skin temperature using a temperature sensor (Thermochron iButton DS1921H; Maxim, Dallas, Tex.) (Sarabia et al. 2008). […]\nBriefly, this analysis includes the following parameters: (i) the inter-daily stability (the constancy of 24-hour rhythmic pattern over days, IS); (ii) intra-daily variability (rhythm fragmentation, IV); (iii) average of 10-minute intervals for the 10 hours with the minimum temperature (L10); (iv) average of 10-minute intervals for the 5 hours with the maximum temperature (M5) and the relative amplitude (RA), which was determined by the difference between M5 and L10, divided by the sum of both. […]"}}, "note": "“Also recorded” adds a separate entry of the source.", "data": [{"molecule": "CC(C)[C@@H](CC[C@@H](C)[C@H]1CC[C@H]2[C@@H]3[C@H](O)C[C@H]4C[C@@H](NCCCNCCCCN)CC[C@]4(C)[C@H]3CC[C@]12C)OS(=O)(=O)O", "note": "(single isomer, unassigned) [squalamine (ENT-01), squalamine]", "values": [{"measurement": "CSBM, weekly average (mean, SD)", "setting": "[1]; n=34, baseline 1.2 (0.90)", "result": "3.8 /week"}, {"measurement": "SBM, weekly average (mean, SD)", "setting": "[1]; n=34, baseline 2.6 (1.45)", "result": "4.5 /week"}, {"measurement": "Suppository use / rescue medication, weekly average (mean, SD)", "setting": "[1]; baseline 1.8 (1.92)", "result": "0.3 /week"}, {"measurement": "Consistency, Bristol stool scale (mean, SD)", "setting": "[1]; scale 1-7, baseline 2.7 (1.20), listed as aminosterol", "result": 4.1}, {"measurement": "Ease of passage, Ease of evacuation scale (mean, SD)", "setting": "[1]; scale 1-7, baseline 3.2 (0.73), listed as aminosterol", "result": 3.7}, {"measurement": "diarrhea, patients", "setting": "[2]; Stage 1, 4/10 patients", "result": 40, "unit": "%"}, {"measurement": "nausea, patients", "setting": "[2]; Stage 1, 4/10 patients", "result": 40, "unit": "%"}, {"measurement": "AEs confined to the GI tract", "setting": "[2]; Stage 1, share of AEs", "result": 88, "unit": "%"}, {"measurement": "patients who withdrew during dosing because of diarrhea", "setting": "[3]; Stage 2", "result": 2, "unit": "patients"}, {"measurement": "diarrhea, patients", "setting": "[3]; Stage 2, 15/34 patients", "result": 44, "unit": "%"}, {"measurement": "Abdominal pain, Mild", "setting": "[3]; Stage 2, 34 dosed", "result": 4, "unit": "n"}, {"measurement": "Abdominal pain, Moderate", "setting": "[3]; Stage 2, 34 dosed", "result": 2, "unit": "n"}, {"measurement": "Blood in urine, Mild", "setting": "[3]; Stage 2, 34 dosed", "result": 0, "unit": "n"}, {"measurement": "Blood in urine, Moderate", "setting": "[3]; Stage 2, 34 dosed", "result": 0, "unit": "n"}, {"measurement": "Diarrhea, Mild", "setting": "[3]; Stage 2, 34 dosed", "result": 12, "unit": "n"}, {"measurement": "Diarrhea, Moderate", "setting": "[3]; Stage 2, 34 dosed", "result": 2, "unit": "n"}, {"measurement": "Diarrhea, Severe", "setting": "[3]; Stage 2, 34 dosed", "result": 1, "unit": "n"}, {"measurement": "Difficulty falling asleep, Mild", "setting": "[3]; Stage 2, 34 dosed", "result": 1, "unit": "n"}, {"measurement": "Difficulty falling asleep, Moderate", "setting": "[3]; Stage 2, 34 dosed", "result": 0, "unit": "n"}, {"measurement": "Dizziness, Mild", "setting": "[3]; Stage 2, 34 dosed", "result": 7, "unit": "n"}, {"measurement": "Dizziness, Moderate", "setting": "[3]; Stage 2, 34 dosed", "result": 1, "unit": "n"}, {"measurement": "Eye infection, Mild", "setting": "[3]; Stage 2, 34 dosed", "result": 1, "unit": "n"}, {"measurement": "Eye infection, Moderate", "setting": "[3]; Stage 2, 34 dosed", "result": 0, "unit": "n"}, {"measurement": "Flatulence, Mild", "setting": "[3]; Stage 2, 34 dosed", "result": 1, "unit": "n"}, {"measurement": "Flatulence, Moderate", "setting": "[3]; Stage 2, 34 dosed", "result": 0, "unit": "n"}, {"measurement": "Headache, Mild", "setting": "[3]; Stage 2, 34 dosed", "result": 3, "unit": "n"}, {"measurement": "Headache, Moderate", "setting": "[3]; Stage 2, 34 dosed", "result": 0, "unit": "n"}, {"measurement": "Increased urinary frequency, Mild", "setting": "[3]; Stage 2, 34 dosed", "result": 2, "unit": "n"}, {"measurement": "Increased urinary frequency, Moderate", "setting": "[3]; Stage 2, 34 dosed", "result": 0, "unit": "n"}, {"measurement": "Loss of appetite, Mild", "setting": "[3]; Stage 2, 34 dosed", "result": 0, "unit": "n"}, {"measurement": "Loss of appetite, Moderate", "setting": "[3]; Stage 2, 34 dosed", "result": 0, "unit": "n"}, {"measurement": "Nausea, Mild", "setting": "[3]; Stage 2, 34 dosed", "result": 18, "unit": "n"}, {"measurement": "Nausea, Moderate", "setting": "[3]; Stage 2, 34 dosed", "result": 1, "unit": "n"}, {"measurement": "Skin lesions-rash, Mild", "setting": "[3]; Stage 2, 34 dosed", "result": 3, "unit": "n"}, {"measurement": "Skin lesions-rash, Moderate", "setting": "[3]; Stage 2, 34 dosed", "result": 0, "unit": "n"}, {"measurement": "Urinary retention, Mild", "setting": "[3]; Stage 2, 34 dosed", "result": 1, "unit": "n"}, {"measurement": "Urinary retention, Moderate", "setting": "[3]; Stage 2, 34 dosed", "result": 0, "unit": "n"}, {"measurement": "Urinary tract infection, Mild", "setting": "[3]; Stage 2, 34 dosed", "result": 1, "unit": "n"}, {"measurement": "Urinary tract infection, Moderate", "setting": "[3]; Stage 2, 34 dosed", "result": 2, "unit": "n"}, {"measurement": "Vomiting, Mild", "setting": "[3]; Stage 2, 34 dosed", "result": 2, "unit": "n"}, {"measurement": "Vomiting, Moderate", "setting": "[3]; Stage 2, 34 dosed", "result": 0, "unit": "n"}, {"measurement": "Worsening acid reflux, Mild", "setting": "[3]; Stage 2, 34 dosed", "result": 4, "unit": "n"}, {"measurement": "Worsening acid reflux, Moderate", "setting": "[3]; Stage 2, 34 dosed", "result": 0, "unit": "n"}, {"measurement": "Worsening hemorrhoid, Mild", "setting": "[3]; Stage 2, 34 dosed", "result": 1, "unit": "n"}, {"measurement": "Worsening hemorrhoid, Moderate", "setting": "[3]; Stage 2, 34 dosed", "result": 0, "unit": "n"}, {"measurement": "AEs confined to the GI tract", "setting": "[3]; Stage 2, share of AEs", "result": 63, "unit": "%"}, {"measurement": "Lower GI bleed, Severe", "setting": "[3]; Stage 2, Unrelated to ENT-01", "result": 1, "unit": "n"}, {"measurement": "lower GI bleed (Serious adverse event, SAE)", "setting": "[3]; during the withdrawal period, considered unrelated to study medication", "result": "One patient"}, {"measurement": "worsening of hemorrhoids, patients", "setting": "[4]; 1/44 patients", "result": 2.2, "unit": "%"}, {"measurement": "worsening of acid reflux, patients", "setting": "[4]; 2/44 patients", "result": 4.5, "unit": "%"}, {"measurement": "flatulence, patients", "setting": "[4]; 3/44 patients", "result": 6.8, "unit": "%"}, {"measurement": "vomiting, patients", "setting": "[4]; 3/44 patients", "result": 6.8, "unit": "%"}, {"measurement": "dizziness, patients", "setting": "[4]; 8/44 patients", "result": 18, "unit": "%"}, {"measurement": "abdominal pain, patients", "setting": "[4]; 11/44 patients", "result": 32, "unit": "%"}, {"measurement": "outcome of all other AEs", "setting": "[4]; in vivo", "result": "resolved spontaneously without discontinuation"}, {"measurement": "circadian rhythm of skin temperature: markers of healthy circadian function (IS, RA, CFI, IV)", "setting": "[5]", "result": "significant positive impact; also recorded: improved all markers of healthy circadian function"}, {"measurement": "circadian rhythm of skin temperature: markers of healthy circadian function (IS, RA, CFI, IV)", "setting": "[5]; listed as Aminosterol", "result": "improved all markers of healthy circadian function"}, {"measurement": "circadian parameters during wash-out (IS, CFI)", "setting": "[5]; wash-out period", "result": "improvement persisted for several of these circadian parameters"}]}]}
